Experimental findings from ChEMBL document CHEMBL5113450, “Discovery of potent dual ligands for dopamine D4 and σ1 receptors” (Bioorg Med Chem, 2022) are described below.

One may read the Ki as the dissociation constant of the complex between target and ligand, obtained from inhibition or displacement.

In test [1] the target is D(1A) dopamine receptor (Homo sapiens) (UniProt P21728). The experiment in a line: Displacement of [3H]SCH 23390 from recombinant human D1 receptor at 3 uM measured after 60 mins by scintillation counting analysis. For orientation: Loss of bound radioactivity is the signal in a displacement assay; it reports binding, not function.
D(1A) dopamine receptor (Homo sapiens), sequence (P21728 whole entry): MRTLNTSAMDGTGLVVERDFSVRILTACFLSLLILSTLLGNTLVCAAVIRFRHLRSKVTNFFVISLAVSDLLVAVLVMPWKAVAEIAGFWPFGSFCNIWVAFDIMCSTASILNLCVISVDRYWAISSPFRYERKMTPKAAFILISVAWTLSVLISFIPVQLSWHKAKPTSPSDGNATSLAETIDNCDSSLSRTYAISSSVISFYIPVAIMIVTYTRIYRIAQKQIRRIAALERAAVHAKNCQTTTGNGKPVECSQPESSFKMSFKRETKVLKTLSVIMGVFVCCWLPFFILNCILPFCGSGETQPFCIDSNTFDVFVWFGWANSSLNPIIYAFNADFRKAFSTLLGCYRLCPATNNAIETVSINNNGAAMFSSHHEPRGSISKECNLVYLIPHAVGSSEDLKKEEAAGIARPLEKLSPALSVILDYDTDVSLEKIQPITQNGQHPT
In test [2] the target is Sigma intracellular receptor 2 (Homo sapiens) (UniProt Q5BJF2). The experiment in a line: Displacement of [3H]-DTG/(+) pentazocine from human sigma2 receptor at 3 uM measured after 60 mins by scintillation counting analysis.
Sigma intracellular receptor 2 (Homo sapiens), sequence (Q5BJF2 whole entry): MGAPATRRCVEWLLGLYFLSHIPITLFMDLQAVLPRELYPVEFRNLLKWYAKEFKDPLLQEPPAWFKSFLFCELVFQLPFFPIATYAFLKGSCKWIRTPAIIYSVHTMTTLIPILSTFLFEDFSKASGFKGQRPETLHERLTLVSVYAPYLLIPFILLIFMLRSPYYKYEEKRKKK
Test [3] deals with D(2) dopamine receptor (Homo sapiens, UniProt P14416). The experiment in a line: Displacement of [3H]methyl-spiperone from recombinant human D2S receptor measured after 60 mins by scintillation counting analysis.
D(2) dopamine receptor, sequence (P14416 whole entry): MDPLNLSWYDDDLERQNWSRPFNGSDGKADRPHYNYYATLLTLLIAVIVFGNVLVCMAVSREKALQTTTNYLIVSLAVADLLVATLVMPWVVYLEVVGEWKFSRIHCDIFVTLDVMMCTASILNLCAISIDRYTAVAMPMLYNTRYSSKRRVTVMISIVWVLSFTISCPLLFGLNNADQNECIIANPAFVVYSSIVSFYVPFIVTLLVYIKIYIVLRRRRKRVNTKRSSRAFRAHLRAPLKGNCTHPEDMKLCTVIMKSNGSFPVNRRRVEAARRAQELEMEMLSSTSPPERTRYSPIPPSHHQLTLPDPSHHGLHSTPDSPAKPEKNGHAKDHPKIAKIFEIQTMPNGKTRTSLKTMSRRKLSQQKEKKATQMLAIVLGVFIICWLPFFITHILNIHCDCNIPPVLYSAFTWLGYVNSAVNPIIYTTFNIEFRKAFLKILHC
For test [4], the target named is D(3) dopamine receptor (Homo sapiens, UniProt P35462). The experiment in a line: Displacement of [3H]methyl-spiperone from recombinant human D3 receptor measured after 60 mins by scintillation counting analysis.
D(3) dopamine receptor, sequence (P35462 whole entry): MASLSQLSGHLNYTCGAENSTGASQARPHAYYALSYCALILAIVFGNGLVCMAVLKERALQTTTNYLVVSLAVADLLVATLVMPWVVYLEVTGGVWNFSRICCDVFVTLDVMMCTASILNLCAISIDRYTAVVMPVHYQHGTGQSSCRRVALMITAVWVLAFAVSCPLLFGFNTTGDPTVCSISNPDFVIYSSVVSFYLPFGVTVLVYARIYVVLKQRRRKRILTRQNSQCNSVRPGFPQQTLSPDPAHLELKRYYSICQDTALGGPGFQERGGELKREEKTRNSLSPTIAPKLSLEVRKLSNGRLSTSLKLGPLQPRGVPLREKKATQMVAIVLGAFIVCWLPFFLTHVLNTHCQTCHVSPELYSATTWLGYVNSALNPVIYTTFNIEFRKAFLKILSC
Test [5] has as its target Voltage-gated inwardly rectifying potassium channel KCNH2 (Homo sapiens, UniProt Q12809). The experiment in a line: Displacement of [3H]dofetilide from recombinant human ERG stably expressed in HEK293 cell membranes measured after 60 mins by scintillation counting analysis. The format is toxicity, Membrane.

Activity calls are given as the source filed them. The rule behind the calls is not given here. Bounds are passed on as bounds.

Voltage-gated inwardly rectifying potassium channel KCNH2, sequence (Q12809 whole entry): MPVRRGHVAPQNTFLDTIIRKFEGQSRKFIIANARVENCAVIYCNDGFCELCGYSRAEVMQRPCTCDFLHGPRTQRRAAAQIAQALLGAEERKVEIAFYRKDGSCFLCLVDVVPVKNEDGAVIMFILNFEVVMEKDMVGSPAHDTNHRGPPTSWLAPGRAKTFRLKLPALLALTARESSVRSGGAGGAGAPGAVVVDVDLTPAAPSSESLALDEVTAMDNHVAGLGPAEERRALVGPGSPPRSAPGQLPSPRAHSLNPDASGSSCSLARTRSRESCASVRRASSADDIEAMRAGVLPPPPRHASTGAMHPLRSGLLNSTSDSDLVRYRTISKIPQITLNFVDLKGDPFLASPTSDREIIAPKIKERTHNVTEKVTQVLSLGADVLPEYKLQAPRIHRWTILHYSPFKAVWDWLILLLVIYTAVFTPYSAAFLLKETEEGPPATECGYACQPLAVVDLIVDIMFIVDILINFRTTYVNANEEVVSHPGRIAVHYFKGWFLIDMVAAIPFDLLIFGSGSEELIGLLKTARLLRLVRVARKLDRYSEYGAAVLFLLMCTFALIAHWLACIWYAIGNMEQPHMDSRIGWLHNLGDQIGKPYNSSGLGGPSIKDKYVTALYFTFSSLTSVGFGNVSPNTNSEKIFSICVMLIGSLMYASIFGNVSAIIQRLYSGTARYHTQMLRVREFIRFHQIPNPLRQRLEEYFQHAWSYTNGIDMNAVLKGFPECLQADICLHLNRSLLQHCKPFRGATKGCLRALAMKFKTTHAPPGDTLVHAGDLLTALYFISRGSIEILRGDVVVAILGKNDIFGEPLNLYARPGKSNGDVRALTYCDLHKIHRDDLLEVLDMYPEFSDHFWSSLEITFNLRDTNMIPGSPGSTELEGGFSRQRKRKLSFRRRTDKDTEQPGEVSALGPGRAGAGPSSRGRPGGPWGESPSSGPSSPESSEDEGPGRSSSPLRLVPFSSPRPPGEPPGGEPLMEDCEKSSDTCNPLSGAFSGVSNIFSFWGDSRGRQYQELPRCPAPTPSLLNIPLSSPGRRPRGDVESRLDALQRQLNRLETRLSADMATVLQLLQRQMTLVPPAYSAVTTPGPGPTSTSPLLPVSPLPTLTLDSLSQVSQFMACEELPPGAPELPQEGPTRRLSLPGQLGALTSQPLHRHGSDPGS

`c1ccc(Cc2cn(C3CCN(Cc4ccccc4)CC3)nn2)cc1`: the result in test [1] and in test [2] was Active. For the same compound, the inhibition constant (Ki) in test [3] is 6.3 µM; in test [4], more than 10 µM; in test [5] it was 4.6 µM.
